Test results: publication PMC5653735, “Comparison of the oxidation of carcinogenic aristolochic acid I and II by microsomal cytochromes P450 in vitro: experimental and theoretical approaches” (Monatshefte Fur Chemie, 2017)

Molecular target: T1, CYP3A1 (Rattus norvegicus, UniProt P04800)
T1 construct: recombinant rat CYP3A1 in Supersomes (microsomes of baculovirus-transfected insect cells); with NADPH:CYP oxidoreductase (POR) and/or cytochrome b5
T1 sequence (P04800 1-504): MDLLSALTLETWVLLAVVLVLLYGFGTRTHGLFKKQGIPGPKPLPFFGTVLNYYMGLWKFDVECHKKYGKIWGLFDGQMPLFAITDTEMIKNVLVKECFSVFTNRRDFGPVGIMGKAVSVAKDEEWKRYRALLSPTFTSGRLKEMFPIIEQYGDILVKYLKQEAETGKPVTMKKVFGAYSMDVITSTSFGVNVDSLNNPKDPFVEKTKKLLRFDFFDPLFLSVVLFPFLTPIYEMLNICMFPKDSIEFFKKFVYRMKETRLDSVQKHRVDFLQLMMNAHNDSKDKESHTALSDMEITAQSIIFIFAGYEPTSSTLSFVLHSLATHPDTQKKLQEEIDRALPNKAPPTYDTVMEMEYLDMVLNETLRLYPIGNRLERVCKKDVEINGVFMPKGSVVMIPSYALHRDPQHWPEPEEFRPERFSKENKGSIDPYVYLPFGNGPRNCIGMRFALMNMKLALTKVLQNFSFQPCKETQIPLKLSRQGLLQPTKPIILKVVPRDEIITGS
Assay: HPLC of AAIa formed from AAII by recombinant CYP in insect-cell microsomes
Assay type: cell-based

In the case of `O=C(O)c1cc2c(c3c1c([N+](=O)[O-])cc1ccccc13)OCO2` [AAII, 6-nitrophenanthro[3,4-d]-1,3-dioxole-5-carboxylic acid], the “HPLC of AAIa formed from AAII by recombinant CYP in insect-cell microsomes” value is reported as “only rat CYP of the 3A subfamily, CYP3A1, but not CYP3A2, was capable of oxidizing AAII to AAIa”.
